Data: patent publication EP2167056B1, “TRANSDERMAL AND TRANSMUCOSAL DRUG DELIVERY ENHANCERS” (priority 2007, dated 2008)
Like-named read-outs stand apart in the source and are kept apart here.

What was measured:
[1] = Franz diffusion cell permeation of hydromorphone hydrochloride with delmopinol analogues (Example 2); settings: 5 % hydromorphone hydrochloride in distilled water with 25 % delmopinol analogue
Experimental: The permeation test was carried out using a Franz diffusion cell with a diffusion area of 1.8 cm^2 as in Example 1. […] Penetration with or without addition of different delmopinol analogues was studied in 5 parallel tests (3 cells per test).

[2] = tested on: plasma glucose; assay: Nasal absorption of insulin with octapinol hydrochloride, reduction in plasma glucose (Example 6); assay type: in vivo, Sprague Dawley male rats; settings: for D (%) total reduction in plasma glucose / Maximum reduction in plasma glucose (%): nasal, mean (S.D.), n=6
Experimental: Tests on the enhancement effect of octapinol (M1523), i.e.4-(2-propylpentyl)-1- 2-propylpentyl)-1-piperidine-ethanol, a compound according to Formula (I), for nasal absorption of peptides were carried out on Sprague Dawley male rats with an individual weight of 250-300 g. The rats were fasted for 15-17 hours and anaesthetized prior to the tests. Trachea and arteria carotis were catheterized with a polyethylene tube. The peptide used for the tests was insulin.
The rats were divided into 5 groups and were administered through the nostril via a polyethylene tube with • 1 % octapinol hydrochloride (placebo group) • insulin (Actrapid ® Human from NovoNordisk, Denmark) 5 IE/kg body weight in physiological NaCl (control group) • insulin 2.5 IE/kg body weight with 0.02% octapinol hydrochloride (test group) • insulin 2.5 IE/kg body weight with 0.2% octapinol hydrochloride (test group) • insulin 2.5 IE/kg body weight with 1% octapinol hydrochloride (test group) The pH-value was 3.1 in the test solutions. The administration volume per rat was 25-30 µl.
There were 4 rats in the placebo group, 3 rats in the control group and 6 rats in each of the three test groups.
During the initial tests octapinol hydrochloride was administered nasally together with insulin 5 IE/kg body weight. At an early stage, pronounced reductions in plasma glucose with 1% octapinol hydrochloride were noted.
In the control and test groups 150 µl blood was taken from arteria carotis 0, 10, 20, 30, 40, 50, 60, 120, 180 and 240 minutes respectively after administration.
(§1) The plasma content of glucose was determined through measurement of the amount NADH formed in accordance with the below reactions. [drawing 4] glucose-6-phosphate + NAD^+ -----> 6-phosphogluconate + NADH + H^+
The change in glucose content was set off against time and the area below the graph (AUC) was calculated with the trapezium method.
The total reduction in plasma glucose (D%) and the maximal reduction in plasma glucose after nasal administration of insulin with octapinol hydrochloride is given in Table 6. The total reduction in plasma glucose (D%) was calculated according to Hirai et al (Int. J. Pharmaceut., 9,173-184: 1981). D % = (AUCc −AUCin)/(AUCc) × 100 [formula] • AUCc= area under the graph for intranasally administered insulin 5 IE/kg body weight in physiological Na Cl (control group) • AUCin= area under the graph for intranasally administered insulin in octapinol solution Table 6

[3] = tested on: plasma glucose; assay: Intravenous administration of octapinol hydrochloride + insulin, reduction in plasma glucose; assay type: in vivo, Sprague Dawley male rats; settings: 1% octapinol hydrochloride + 0.2 IE insulin/kg intravenously, after 20 minutes
Experimental: A reduction in plasma glucose of about 40 % was observed after 20 minutes.
as §1

[4] = Experimental: The permeation test was carried out using a Franz diffusion cell with a diffusion area of 1.8 cm^2 as in Example 1. […] 180 µl of 1 % nicotinic acid in distilled water with and without the addition of 25% delmopinol hydrochloride was used on the "donor" side of the skin. The nicotinic acid was ^14C-labeled. Penetration with and without addition of delmopinol hydrochloride was studied in 2 parallel tests (3 cells per test).
Radioactivity in the receiving" phase was read at different time intervals over a one week period. […]

[5] = Franz diffusion cell permeation of 3H-labeled TRH (Example 5); assay type: in vitro ADME, human
Remark: listed apart in the source
[6] = assay type: in vitro ADME, human
Experimental: 180 µl of 1 % mannitol in distilled water with and without the addition of 1, 5, 10 and 25 % delmopinol hydrochloride respectively was used on the "donor" side of the skin. The mannitol was ^3H-labeled.
A very pronounced effect of the penetration enhancer was seen, but only little if any difference between the concentrations 5, 10 and 25 %, as shown in Table 4.

[7] = insulin 2.5 IE/kg with 0.02 % octapinol hydrochloride
[8] = insulin 2.5 IE/kg with 0.2 % octapinol hydrochloride
[9] = insulin 2.5 IE/kg with 1 % octapinol hydrochloride

Compound: CCCC(CCC)CC1CCN(CCO)CC1 [M 1523 (octapinol)]
- Flux (of hydromorphone hydrochloride) [1]: 13 µg/h/cm^2
- change in plasma glucose level ([2]; 1% octapinol hydrochloride alone, nasally, four rats): No significant change
- reductions in plasma glucose, of the initial plasma glucose value ([2]; initial tests: nasal, insulin 5 IE/kg with 1% octapinol hydrochloride): 85 - 90%
- D (%) total reduction in plasma glucose [2, 7]: 3.6 (3.2) %
- Maximum reduction in plasma glucose (%) [2, 7]: 3.5 (2.9) %
- D (%) total reduction in plasma glucose [2, 8]: 9.5 (5.3) %
- Maximum reduction in plasma glucose (%) [2, 8]: 6.5 (3.5) %
- D (%) total reduction in plasma glucose [2, 9]: 23.8 (5.8) %
- Maximum reduction in plasma glucose (%) [2, 9]: 39.1 (11.3) %
- reduction in plasma glucose [3]: about 40%

Compound: CCCCCCCCCCC1CN(CCCO)CCO1 (stereo not shown) [M 1676]
- Flux (of hydromorphone hydrochloride) [1]: 19 µg/h/cm^2

Compound: CCCC(CCC)CCCC1COCC[N+]1(C)CCO.[Cl-] (stereo not shown) [M 1713, 4-(2-hydroxyethyl)-4-methyl-3-(4-propylheptyl)-morpholinium chloride]
- Flux (of hydromorphone hydrochloride) [1]: 4.8 µg/h/cm^2

Compound: CCCC(CCC)CCCC1COCCN1CCO (stereo not shown) [delmopinol]
- Flux (steady state flux of nicotinic acid) ([4]; pH 7.4): 1.5 µg/h/cm^2
- Flux (steady state flux of TRH) ([5]; pH 6): 34 ng/h/cm^2
- steady state flux of morphine sulphate (10 % morphine sulphate in distilled water with 25% delmopinol hydrochloride): about 26 µg/h/cm^2
- factor by which permeation of hydromorphone hydrochloride is increased (in the presence of 25 % delmopinol versus without): about 290

Compound: OC[C@@H](O)[C@@H](O)[C@H](O)[C@H](O)CO [mannitol, reference compound]
- Flux (of mannitol) [6]: 6.6 µg/h/cm^2

Compound: O=C(O)c1cccnc1 [nicotinic acid, reference compound]
- Flux (steady state flux of nicotinic acid) [4]: 0.15 µg/h/cm^2

Compound: thyroid-releasing hormone (TRH) [reference compound]
- Flux (steady state flux of TRH) ([5]; 5 % TRH in dist. water without enhancer): 4 ng/h/cm^2
